Experiments:
Type in all cases: in vivo
[1] = system: brown planthopper (Nilaparvata lugens); assay: Test Example 5: spray on rice seedling, brown planthopper, 200 ppm; conditions: 144 h, 10 mL spray on rice seedling, 3rd to 4th instar larvae, after 6 days, 25° C., read-out: controlling value
[2] = system: cotton aphid (Aphis gossypii); assay: Test Example 2: foliar spray on cucumber seedling infested with cotton aphid, 200 ppm; conditions: 144 h, spray 20 mL/seedling on cucumber, 6 days after spraying, read-out: controlling value
[3] = system: housefly (Musca domestica); assay: Test Example 9: treated filter paper with sucrose bait, housefly, 500 ppm; conditions: 0.7 mL on filter paper, female adult housefly, after 24 hours
Procedure: Each formulation comprising the Present compound 5, 17, 25, 26, 27, 31, 35, 36, 37 or 38, or the N-oxide 3, the N-oxide 4, or the N-oxide 5 prepared by the process according to the Formulation example 5 was diluted with water until the concentration of the active ingredient reached 500 ppm to prepare a test chemical solution.
The bottom of the polyethylene cup having 5.5 cm diameter was matted with the same size of a filter paper, and 0.7 mL of the test chemical solution was added dropwise to the filter paper, and 30 mg sucrose as bait was placed in the cup uniformly. Ten (10) heads of female adult housefly (Musca domestica) were released into the polyethylene cup, and the cup was covered with a lid. After 24 hours, the life and death of housefly was investigated, and the number of dead insects was counted, and the mortality of insects was calculated by the following equation. Mortality of insects (%)=(the number of dead insects/the number of test insects)×100

[4] = system: cabbage moth (Plutella xylostella); assay: Test Example 7: spray on cabbage seedling, cabbage moth larvae, 500 ppm; conditions: 120 h, spray 20 mL/cup on cabbage, 2nd instar larvae, 25° C., 5 days, read-out: morality of insects
Procedure: (§1) Meanwhile, cabbage seedling (on the developmental stage of the third true leaf) was planted in a polyethylene cup, and each of the test chemical solution was sprayed into the cabbage seedling in a ratio of 20 mL/cup. After the test chemical solution was dried, the stem and leaf thereof was cut out and then installed into a 50 mL cup. Five (5) heads of 2nd instar larvae of cabbage moth (Plutella xylostella) were released into the cup, and the cup was covered with a lid. After the cup was stored at 25° C. for 5 days, the number of the dead insects was counted, and the mortality of insects was calculated by the following equation. Morality (%)=([…]the number of the dead insects/the number of the test insects)×100

[5] = system: cabbage moth (Plutella xylostella); assay: Test Example 8: spray on cabbage seedling, cabbage moth larvae, 200 ppm; conditions: 120 h, spray 20 mL/cup on cabbage, 2nd instar larvae, 25° C., 5 days, read-out: morality of insects
Procedure: as §1, with “of the surviving insects/the number” for “of the dead insects/the number”

[6] = system: cotton aphid (Aphis gossypii); assay: Test Example 1: foliar spray on cucumber seedling infested with cotton aphid, 500 ppm; conditions: 144 h, spray 20 mL/seedling on cucumber, 6 days after spraying, read-out: controlling value
[7] = system: cucurbit leaf beetle (Aulacophora femoralis); assay: Test Example 11: spray on cucumber seedling, cucurbit leaf beetle larvae, 50 ppm; conditions: 120 h, Formulation example 1, spray 30 mL/cup on cucumber, second instar larvae, 25° C., 5 days, read-out: morality of insects
Procedure: Meanwhile, cucumber seedling (on the developmental stage of the third true leaf) was planted in a polyethylene cup, and each of the test chemical solution was sprayed into the seedling in a ratio of 30 mL/cup. After the test chemical solution was dried, the second leaf thereof was cut out, and then installed into a 200 mL cup. Ten (10) heads of the second instar larvae of cucurbit leaf beetle (Aulacophora femoralis) were released into the cup, and the cup was covered with a lid. After the cup was stored at 25° C. for 5 days, the number of the dead insects was counted, and the mortality of insects was calculated by the following equation. Morality (%)−{the number of the dead insects/the number of the test isects}×100

[8] = system: house mosquito (Culex pipiens pallens); assay: Test Example 10: house mosquito larvae in treated water; conditions: 0.7 mL of 500 ppm solution in 100 ml water (3.5 ppm), last instar larvae, after 1 day
Procedure: The formulation comprising the Present compounds 4 prepared by the process according to the Formulation example 5 was diluted with water until the concentration of the active ingredient reached 500 ppm to prepare a test chemical solution.
Zero point seven(0.7) mL of the testg chemical solution was added to ion-changed water 100 ml (the concentrataion of the active ingredient was 3.5 ppm). Twently (20) heads of the last instar larvae of […] house mosquito (Culex pipiens pallens) were released […], and after 1 day, the life and death of house mosquito was investigated, and the number of dead insects was counted, and the mortality of insects was calculated by the following equation. Mortality of insects (%)=(the number of the dead insects/the number of the test insects)×100

Row | Compound | pest or weed control at 200 ppm [1] | pest or weed control at 200 ppm [2] | morality of insects [3] | pest or weed control at 500 ppm [4] | pest or weed control at 200 ppm [5] | pest or weed control at 500 ppm [6] | pest or weed control at 50 ppm [7] | insect mortality [8]
1 | CC[S+]([O-])c1cccnc1-c1cc(C)c(OCC(F)(F)C(F)(F)F)nn1 (stereo not drawn) [Present compound 38] | ≥ 90% | ≥ 90% | 100% | ≥ 80% | ≥ 80% | ≥ 90% |  | 
2 | CCS(=O)(=O)c1cc(C(F)(F)F)cnc1-c1ccc(OCC(F)(F)C(F)F)nn1 [Present compound 31] |  |  | 100% |  |  |  |  | 
3 | CCS(=O)(=O)c1cc(C(F)(F)F)cnc1-c1ccc(OCC(F)(F)C(F)(F)F)nn1 [Present compound 28] | ≥ 90% | ≥ 90% |  |  | ≥ 80% |  | ≥ 85% | 
4 | CCS(=O)(=O)c1cccnc1-c1ccc(OCC(Cl)(Cl)Cl)nn1 [Present compound 4] |  | ≥ 90% |  |  |  | ≥ 90% | ≥ 85% | ≥ 95%
5 | CCS(=O)(=O)c1cccnc1-c1n[n+]([O-])c(OCC(F)(F)C(F)(F)F)cc1C [N-oxide 3] |  |  | 100% |  |  |  |  | 
6 | CCS(=O)(=O)c1cccnc1-c1cc(C(F)(F)F)c(OCC(F)(F)C(F)(F)F)nn1 [Present compound 34] |  |  |  | ≥ 80% | ≥ 80% | ≥ 90% | ≥ 85% | 
7 | CCS(=O)(=O)c1cccnc1-c1ccc(OCC(F)(F)C(F)F)nn1 [Present compound 8] | ≥ 90% | ≥ 90% |  | ≥ 80% | ≥ 80% | ≥ 90% | ≥ 85% | 
8 | CCS(=O)(=O)c1cccnc1-c1cc(C)c(OCC(F)(F)C(F)(F)F)nn1 [Present compound 36] | ≥ 90% | ≥ 90% | 100% | ≥ 80% | ≥ 80% | ≥ 90% |  | 
9 | CCC(Oc1ccc(-c2ncccc2S(=O)(=O)CC)nn1)C(F)(F)F (stereo not drawn) [Present compound 26] |  |  | 100% |  |  |  |  | 
10 | CC[S+]([O-])c1cccnc1-c1cc(C)c(OCC(F)(F)C(F)F)nn1 (stereo not drawn) [Present compound 37] | ≥ 90% | ≥ 90% | 100% | ≥ 80% |  | ≥ 90% |  | 
11 | CCS(=O)(=O)c1cccnc1-c1ccc(OCC(C)(C(F)(F)F)C(F)(F)F)nn1 [Present compound 25] |  |  | 100% |  |  |  |  | 
12 | CCS(=O)(=O)c1cccnc1-c1ccc(OCC(F)(F)F)nn1 [Present compound 5] |  |  | 100% |  |  |  |  | 
13 | CCS(=O)(=O)c1cc(C(F)(F)F)cnc1-c1ccc(OCC(F)(F)C(F)(F)F)[n+]([O-])n1 [N-oxide 4] |  |  | 100% |  |  |  |  | 
14 | CCSc1cccnc1-c1ccc(OCC(F)(F)C(F)(F)F)nn1 [Present compound 27] | ≥ 90% | ≥ 90% | 100% | ≥ 80% | ≥ 80% | ≥ 90% | ≥ 85% | 
15 | CCS(=O)(=O)c1cc(C(F)(F)F)ccc1-c1ccc(OCC(F)(F)F)nn1 [Present compound 1] |  |  |  |  |  |  | ≥ 85% | 
16 | CCS(=O)(=O)c1cccnc1-c1cc(C(F)(F)F)c(OCC(F)(F)C(F)F)nn1 [Present compound 33] |  |  |  | ≥ 80% | ≥ 80% | ≥ 90% |  | 
17 | CCS(=O)(=O)c1cccnc1-c1nnc(OCC(F)(F)C(F)(F)F)cc1C [Present compound 30] |  |  |  |  | ≥ 80% |  |  | 
18 | CC[S+]([O-])c1cccnc1-c1ccc(OCC(F)(F)C(F)(F)F)nn1 (stereo not drawn) [Present compound 29] | ≥ 90% | ≥ 90% |  |  |  | ≥ 90% | ≥ 85% | 
19 | CCS(=O)(=O)c1cccnc1-c1ccc(OCC(F)(F)C(F)(F)C(F)(F)F)nn1 [Present compound 17] |  |  | 100% |  |  |  |  | 
20 | CCS(=O)(=O)c1cccnc1-c1cc(C)c(OCC(F)(F)C(F)F)nn1 [Present compound 35] | ≥ 90% | ≥ 90% | 100% | ≥ 80% | ≥ 80% | ≥ 90% | ≥ 85% | 
21 | CCS(=O)(=O)c1cc(C(F)(F)F)cnc1-c1ccc(OCC(F)(F)C(F)F)[n+]([O-])n1 [N-oxide 5] |  |  | 100% |  |  |  |  | 

From patent US9924719B2, “Pyridazine compound” (Sumitomo Chemical Company, Limited, priority 2014, dated 2018)
